Measured values reported in the supplement of paper PMC13380429.

What was measured:
Details in all cases: 72 h
[1] = test system: HepG2; test: relative viability EC50 (midpoint between 100% and the lowest measured viability); higher = less toxic
[2] = test system: Caco-2; test: as above
[3] = test system: Vero E6; test: as above
[4] = test system: U2OS; test: as above
[5] = test system: Calu-3; test: as above
[6] = test system: HepG2; test: cell viability relative to DMSO; higher = less toxic
[7] = test system: Caco-2; test: as above
[8] = test system: Vero E6; test: as above
[9] = test system: U2OS; test: as above
[10] = test system: Calu-3; test: as above
[11] = test system: HepG2; test: drug sensitivity score (DSS) for viability; higher = more toxic; extreme values may be limits of the assay
[12] = test system: Caco-2; test: as above
[13] = test system: Vero E6; test: as above
[14] = test system: U2OS; test: as above
[15] = test system: Calu-3; test: as above

Row | SMILES | relative viability EC50 [1] [µM] | relative viability EC50 [2] [µM] | relative viability EC50 [3] [µM] | relative viability EC50 [4] [µM] | relative viability EC50 [5] [µM] | cell viability ([6]; 1 nM) [%] | cell viability ([6]; 10 nM) [%] | cell viability ([6]; 100 nM) [%] | cell viability ([6]; 1000 nM) [%] | cell viability ([6]; 10000 nM) [%] | cell viability ([7]; 1 nM) [%] | cell viability ([7]; 10 nM) [%] | cell viability ([7]; 100 nM) [%] | cell viability ([7]; 1000 nM) [%] | cell viability ([7]; 10000 nM) [%] | cell viability ([8]; 1 nM) [%] | cell viability ([8]; 10 nM) [%] | cell viability ([8]; 100 nM) [%] | cell viability ([8]; 1000 nM) [%] | cell viability ([8]; 10000 nM) [%] | cell viability ([9]; 1 nM) [%] | cell viability ([9]; 10 nM) [%] | cell viability ([9]; 100 nM) [%] | cell viability ([9]; 1000 nM) [%] | cell viability ([9]; 10000 nM) [%] | cell viability ([10]; 1 nM) [%] | cell viability ([10]; 10 nM) [%] | cell viability ([10]; 100 nM) [%] | cell viability ([10]; 1000 nM) [%] | cell viability ([10]; 10000 nM) [%] | drug sensitivity score [11] | drug sensitivity score [12] | drug sensitivity score [13] | drug sensitivity score [14] | drug sensitivity score [15]
1 | C=CCNC(=O)c1cc([N+](=O)[O-])cc2c(=O)[nH]c(Nc3ccc(Cl)c(Cl)c3)nc12 | > 10 | > 10 | > 10 | > 10 | > 10 | 104 | 90.5 | 100 | 91.9 | 95.8 | 100 | 95.5 | 99.1 | 96.5 | 98.4 | 92.4 | 94.3 | 92.9 | 97.5 | 97.7 | 97.7 | 96.2 | 102 | 98 | 92.1 | 104 | 93.2 | 103 | 102 | 94 | 0 | 0 | 0 | 0 | 0
2 | CC#CCOC(=O)c1c(C)nc2sc3c(c2c1N)CCC(O)C3 (configuration not stated) | > 10 | > 10 | > 10 | > 10 | > 10 | 100 | 94.8 | 89.9 | 106 | 91.4 | 97.3 | 91.4 | 101 | 92.3 | 90.2 | 91.6 | 97 | 88.6 | 93.2 | 98.9 | 100 | 94.6 | 103 | 93.8 | 95.9 | 113 | 93.6 | 102 | 101 | 97.4 | 0 | 0 | 0 | 0 | 0
3 | CC(C)Oc1cccc(CC(=O)N2CCC[C@](CC[N+]34CCC(c5ccccc5)(CC3)CC4)(c3ccc(Cl)c(Cl)c3)C2)c1 | > 10 | > 10 | > 10 | > 10 | > 10 | 110 | 84.1 | 104 | 91 | 95.7 | 102 | 99.7 | 100 | 97.9 | 91.8 | 101 | 98.2 | 100 | 95.8 | 97 | 96.8 | 99.4 | 96.8 | 99.3 | 98.8 | 87.6 | 98.1 | 91.1 | 92.5 | 99.1 | 0 | 0 | 0 | 0 | 0
4 | CCCN(CCC)C1Cc2cc(OC)c(OC)cc2C1 | > 10 | > 10 | > 10 | > 10 | > 10 | 96.1 | 106 | 101 | 99.8 | 94.6 | 96.6 | 99.6 | 94.1 | 98.3 | 89.9 | 103 | 103 | 103 | 102 | 99 | 102 | 97.5 | 100 | 99.5 | 104 | 96.9 | 108 | 92.3 | 93.7 | 108 | 0 | 0 | 0 | 0 | 0
5 | CCOc1cc(/C=C2/C(=O)N(c3ccccc3)N=C2C)cc(Cl)c1OCC(=O)OC | > 10 | > 10 | > 10 | > 10 | > 10 | 96.5 | 101 | 96.1 | 98.3 | 91.6 | 102 | 108 | 92.4 | 92.9 | 97.4 | 104 | 106 | 103 | 102 | 97.7 | 102 | 100 | 98.2 | 96.2 | 99.4 | 92.9 | 95.9 | 105 | 94.8 | 108 | 0 | 0 | 0 | 0 | 0
6 | CCn1cnc2c(Nc3cccc(Cl)c3)nc(N[C@@H]3CCCC[C@@H]3N)nc21 | 3.5 | 2.82 | 2.94 | 2.8 | 3.25 | 91.4 | 112 | 103 | 106 | 1.1 | 91.9 | 98.8 | 103 | 96.8 | 27.8 | 94.1 | 98.9 | 96.1 | 97.2 | 6.3 | 102 | 94.4 | 102 | 95.3 | 0.9 | 97.4 | 90.9 | 108 | 101 | 19.5 | 5 | 4.4 | 5.6 | 6.2 | 4.4
7 | N=C(N)c1ccc(N2CCN(C3CCN(CC(=O)O)CC3)CC2)cc1 | > 10 | > 10 | > 10 | > 10 | > 10 | 111 | 96.8 | 101 | 107 | 102 | 83 | 97.2 | 89.2 | 92.5 | 104 | 97.9 | 98.6 | 99.2 | 93.5 | 96.9 | 97.6 | 103 | 95.6 | 96.9 | 102 | 91.4 | 96.4 | 90 | 92 | 100 | 0 | 0 | 0 | 0 | 0
8 | O=C(Nc1ccc(S(=O)(=O)C(F)(F)F)cc1)C1=CCN(c2ncccc2C(F)(F)F)CC1 | 2.67 | – | > 10 | > 10 | > 10 | 107 | 87.9 | 104 | 96.2 | 38.6 | 97.3 | 98.4 | 90.7 | 97.4 | 62.4 | 99.6 | 91.7 | 91.3 | 88.9 | 94.7 | 96.1 | 101 | 93.2 | 101 | 84.9 | 96.2 | 106 | 99.6 | 101 | 79.9 | 3.9 | 2.2 | 0.7 | 0.2 | 0.5
9 | CCCn1c(=O)c2nc(-c3ccccc3)[nH]c2n(CCC)c1=O [1,3-dipropyl-8-phenylxanthine] | – | > 10 | > 10 | > 10 | > 10 | 108 | 99.8 | 103 | 90.3 | 69.5 | 91.1 | 96.4 | 90.3 | 102 | 81.9 | 96.6 | 95.4 | 94 | 95.7 | 94.9 | 98.1 | 95.4 | 90.1 | 97.1 | 90.5 | 102 | 102 | 101 | 102 | 89.4 | 2.7 | 0.4 | 0 | 0 | 0
10 | Nc1nc(Cl)nc2c1ncn2[C@@H]1O[C@H](CO)[C@@H](O)[C@H]1O [2-chloroadenosine] | > 10 | – | > 10 | > 10 | > 10 | 99.9 | 101 | 104 | 104 | 81.8 | – | – | – | – | – | 93.4 | 102 | 103 | 102 | 93.7 | 101 | 96.1 | 102 | 107 | 101 | 110 | 103 | 98.8 | 113 | 84.5 | 0.3 | – | 0 | 0 | 0.1
11 | CN(C)c1nc(N)c(C(=O)Nc2cccnc2)nc1Cl [ACDPP] | – | > 10 | > 10 | > 10 | > 10 | 104 | 105 | 103 | 80.9 | 58.9 | 87.4 | 98.7 | 93 | 89.2 | 87.9 | 102 | 95.3 | 98.3 | 95.1 | 99.9 | 93.6 | 98 | 97.7 | 98.5 | 105 | 100 | 96.8 | 104 | 96.4 | 94.6 | 4.5 | 0 | 0 | 0 | 0
12 | CN(C)C(=O)c1ccc(S(=O)(=O)c2ccc(NC(=O)[C@@](C)(O)C(F)(F)F)c(Cl)c2)cc1 [AZD7545] | – | > 10 | > 10 | > 10 | > 10 | 94.3 | 99.1 | 95 | 99.1 | 61 | 103 | 96.3 | 96.7 | 96.1 | 79.6 | 101 | 99 | 99.7 | 89 | 90.9 | 94.5 | 104 | 91.9 | 103 | 84.9 | 99.6 | 107 | 85.2 | 94 | 102 | 2 | 1.2 | 0.2 | 0.1 | 0
13 | O=C(NO)C1(CS(=O)(=O)c2ccc(Oc3ccc(Cl)cc3)cc2)CCOCC1 [CTS-1027] | > 10 | – | > 10 | > 10 | > 10 | 97.7 | 88.7 | 104 | 83.5 | 96.3 | 104 | 109 | 105 | 98.8 | 74.3 | 101 | 104 | 99.4 | 95 | 94.5 | 99.7 | 105 | 100 | 106 | 88.1 | 95 | 101 | 93.1 | 104 | 98.2 | 0 | 1.2 | 0 | 0 | 0
14 | O=c1c2ccccc2[se]n1-c1ccccc1 [Ebselen] | > 10 | > 10 | > 10 | – | > 10 | 113 | 98.2 | 103 | 100 | 106 | 102 | 89.2 | 104 | 91.6 | 92.2 | 97.6 | 100 | 105 | 92.8 | 93.7 | 103 | 95.8 | 105 | 98.9 | 74.5 | 104 | 91.8 | 107 | 83.1 | 87.7 | 0 | 0 | 0 | 1.1 | 1.7
